Measured values reported in ChEMBL document CHEMBL5257126, “Moderately lipophilic 2-(Het)aryl-6-dithioacetals, 2-phenyl-1,4-benzodioxane-6-dithioacetals and 2-phenylbenzofuran-5-dithioacetals: Synthesis and primary evaluation as potential antidiabetic AMPK-activators” (Bioorg Med Chem, 2023).
The source made the active and inactive calls. No cut-off for these calls is given here.

Tests used:
[1] = biological target: T1, Serine/threonine-protein kinase STK11 (Rattus norvegicus) (UniProt D4AE59); assay: Activation of LKB1 in rat L6 cells assessed as fold increase in phosphorylation at Ser428 at 5 uM incubated for 24 hrs by Western blot analysis (reference value: 4.6); type: cell-based; conditions: filed as activator
T1 sequence (whole entry): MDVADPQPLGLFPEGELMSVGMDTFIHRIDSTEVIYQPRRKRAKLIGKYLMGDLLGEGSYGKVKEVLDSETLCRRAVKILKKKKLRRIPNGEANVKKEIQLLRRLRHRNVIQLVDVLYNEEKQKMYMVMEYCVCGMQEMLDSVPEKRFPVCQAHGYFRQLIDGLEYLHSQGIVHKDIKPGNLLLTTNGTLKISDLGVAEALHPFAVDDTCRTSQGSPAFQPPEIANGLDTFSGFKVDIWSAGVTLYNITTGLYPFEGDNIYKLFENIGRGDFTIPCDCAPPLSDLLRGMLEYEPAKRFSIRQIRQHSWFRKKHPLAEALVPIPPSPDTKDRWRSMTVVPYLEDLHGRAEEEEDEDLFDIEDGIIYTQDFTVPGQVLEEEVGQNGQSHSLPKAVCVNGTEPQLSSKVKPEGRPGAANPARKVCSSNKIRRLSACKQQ

[2] = biological target: T2, AMP-activated protein kinase, AMPK (Rattus norvegicus) (UniProt P54645+Q09137+P80386+P80385+Q9QZH4+Q6V7V4+D4A7E4); assay: Activation of AMPK phosphorylation in rat INS-1E cells incubated for 24 hrs; type: cell-based; conditions: filed as activator, dose 0.5-2 µM
[3] = biological target: T2, AMP-activated protein kinase, AMPK (Rattus norvegicus); assay: Activation of AMPK phosphorylation at Thr172 residue in rat L6 cells assessed as fold increase at 0.5 uM incubated for 24 hrs by Western blot analysis (reference value: 0.6); type: cell-based; conditions: filed as activator
INS-1E [4] = assay: Anti-hyperglycemic activity in rat INS-1E cells assessed as total intracellular insulin secretion at 2 uM after 24 hrs; type: functional, cell-based
[5] = biological target: T2, AMP-activated protein kinase, AMPK (Rattus norvegicus); assay: Activation of AMPK phosphorylation at Thr172 residue in rat L6 cells assessed as fold increase at 2.5 uM incubated for 24 hrs by Western blot analysis (reference value: 0.6); type: cell-based; conditions: filed as activator
[6] = biological target: T1, Serine/threonine-protein kinase STK11 (Rattus norvegicus); assay: Activation of LKB1 in rat L6 cells assessed as fold increase in phosphorylation at Ser428 at 2.5 uM incubated for 24 hrs by Western blot analysis (reference value: 4.6); type: cell-based; conditions: filed as activator
L6 [7] = assay: Inhibition of AKT phosphorylation at Ser473 in rat L6 cells assessed as fold reduction at 0.25 uM incubated for 24 hrs by Western blot analysis (reference value: 1.1); type: cell-based
INS-1E [8] = assay: Anti-hyperglycemic activity in rat INS-1E cells assessed as glucose stimulated insulin secretion at 1 to 2 uM after 24 hrs; type: functional, cell-based; conditions: dose 1-2 µM
L6 [9] = assay: Inhibition of AKT phosphorylation at Ser473 in rat L6 cells assessed as fold reduction at 0.5 uM incubated for 24 hrs by Western blot analysis (reference value: 1.1); type: cell-based
L6 [10] = assay: Inhibition of AKT phosphorylation at Ser473 in rat L6 cells assessed as fold reduction at 1 uM incubated for 24 hrs by Western blot analysis (reference value: 1.1); type: cell-based
[11] = Clearance in C57BL/6 mouse at 5 mg/kg, iv; type: ADME, organism-based; conditions: in vivo
[12] = biological target: T1, Serine/threonine-protein kinase STK11 (Rattus norvegicus); assay: Activation of LKB1 in rat L6 cells assessed as fold increase in phosphorylation at Ser428 at 1 uM incubated for 24 hrs by Western blot analysis (reference value: 4.6); type: cell-based; conditions: filed as activator
[13] = biological target: T2, AMP-activated protein kinase, AMPK (Rattus norvegicus); assay: Activation of AMPK phosphorylation at Thr172 residue in rat L6 cells assessed as fold increase at 5 uM incubated for 24 hrs by Western blot analysis (reference value: 0.6); type: cell-based; conditions: filed as activator
[14] = biological target: T2, AMP-activated protein kinase, AMPK (Rattus norvegicus); assay: Activation of AMPK phosphorylation at Thr172 residue in rat L6 cells assessed as fold increase at 0.25 uM incubated for 24 hrs by Western blot analysis (reference value: 0.6); type: cell-based; conditions: filed as activator
L6 [15] = assay: Inhibition of AKT phosphorylation at Ser473 in rat L6 cells assessed as fold reduction at 0.1 uM incubated for 24 hrs by Western blot analysis (reference value: 1.1); type: cell-based
INS-1E [16] = assay: Anti-hyperglycemic activity in rat INS-1E cells assessed as basal insulin secretion after 24 hrs; type: functional, cell-based
L6 [17] = assay: Induction of glucose uptake in rat L6 cells assessed as fold increase by measuring 2-NBDG uptake at 2.5 uM preincubated in high glucose medium for 48 hrs followed by compound addition and measured after 24 hrs; type: functional
[18] = biological target: T2, AMP-activated protein kinase, AMPK (Rattus norvegicus); assay: Activation of AMPK phosphorylation at Thr172 residue in rat L6 cells assessed as fold increase at 10 uM incubated for 24 hrs by Western blot analysis (reference value: 0.6); type: cell-based; conditions: filed as activator
L6 [19] = assay: Inhibition of AKT phosphorylation at Ser473 in rat L6 cells assessed as fold reduction at 5 uM incubated for 24 hrs by Western blot analysis (reference value: 1.1); type: cell-based
[20] = biological target: T2, AMP-activated protein kinase, AMPK (Rattus norvegicus); assay: Activation of AMPK phosphorylation at Thr172 residue in rat L6 cells assessed as fold increase at 1 uM incubated for 24 hrs by Western blot analysis (reference value: 0.6); type: cell-based; conditions: filed as activator
[21] = biological target: T1, Serine/threonine-protein kinase STK11 (Rattus norvegicus); assay: Activation of LKB1 in rat L6 cells assessed as fold increase in phosphorylation at Ser428 at 0.1 uM incubated for 24 hrs by Western blot analysis (reference value: 4.6); type: cell-based; conditions: filed as activator
[22] = Tmax in C57BL/6 mouse at 25 mg/kg, po; type: ADME, organism-based; conditions: in vivo
[23] = Volume of distribution at steady state in C57BL/6 mouse at 5 mg/kg, iv; type: ADME, organism-based; conditions: in vivo, read-out: Vdss
[24] = Half life in C57BL/6 mouse at 5 mg/kg, iv; type: ADME, organism-based; conditions: in vivo
[25] = biological target: T1, Serine/threonine-protein kinase STK11 (Rattus norvegicus); assay: Activation of LKB1 in rat L6 cells assessed as fold increase in phosphorylation at Ser428 at 10 uM incubated for 24 hrs by Western blot analysis (reference value: 4.6); type: cell-based; conditions: filed as activator
L6 [26] = assay: Induction of glucose uptake in rat L6 cells assessed as fold increase by measuring 2-NBDG uptake at 25 uM preincubated in high glucose medium for 48 hrs followed by compound addition and measured after 24 hrs; type: functional
[27] = Half life in C57BL/6 mouse blood; type: ADME, tissue-based
[28] = Cmax in C57BL/6 mouse at 25 mg/kg, po; type: ADME, organism-based; set-up: dose 25 mg/kg, route po; conditions: in vivo
[29] = biological target: T2, AMP-activated protein kinase, AMPK (Rattus norvegicus); assay: Activation of AMPK phosphorylation in rat L6 cells incubated for 24 hrs by Western blot analysis; type: cell-based; conditions: filed as activator, dose 0.6-9.31 µM
[30] = Oral bioavailability in C57BL/6 mouse at 25 mg/kg; type: ADME, organism-based; conditions: in vivo
[31] = biological target: T2, AMP-activated protein kinase, AMPK (Rattus norvegicus); assay: Activation of AMPK phosphorylation at Thr172 residue in rat L6 cells assessed as fold increase at 0.1 uM incubated for 24 hrs by Western blot analysis (reference value: 0.6); type: cell-based; conditions: filed as activator
INS-1E [32] = assay: Anti-hyperglycemic activity in rat INS-1E cells assessed as insulin secretion […] after 24 hrs; type: functional, cell-based
[33] = biological target: T2, AMP-activated protein kinase, AMPK (Rattus norvegicus); assay: Activation of AMPK phosphorylation in rat INS-1E beta-cells at 2 uM incubated for 24 hrs; type: cell-based; conditions: filed as activator
L6 [34] = assay: Induction of glucose uptake in rat L6 cells assessed as fold increase by measuring 2-NBDG uptake at 0.25 uM preincubated in high glucose medium for 48 hrs followed by compound addition and measured after 24 hrs; type: functional
[35] = biological target: T1, Serine/threonine-protein kinase STK11 (Rattus norvegicus); assay: Activation of LKB1 in rat L6 cells assessed as fold increase in phosphorylation at Ser428 at 0.5 uM incubated for 24 hrs by Western blot analysis (reference value: 4.6); type: cell-based; conditions: filed as activator
[36] = biological target: T1, Serine/threonine-protein kinase STK11 (Rattus norvegicus); assay: Activation of LKB1 in rat L6 cells assessed as fold increase in phosphorylation at Ser428 at 0.25 uM incubated for 24 hrs by Western blot analysis (reference value: 4.6); type: cell-based; conditions: filed as activator
L6 [37] = assay: Inhibition of AKT phosphorylation at Ser473 in rat L6 cells assessed as fold reduction at 10 uM incubated for 24 hrs by Western blot analysis (reference value: 1.1); type: cell-based
L6 [38] = assay: Inhibition of AKT phosphorylation at Ser473 in rat L6 cells assessed as fold reduction at 2.5 uM incubated for 24 hrs by Western blot analysis (reference value: 1.1); type: cell-based
[39] = Half life in C57BL/6 mouse at 25 mg/kg, po; type: ADME, organism-based; conditions: in vivo

With `c1cc(C2CCc3cc(C4SCCCS4)ccc3O2)ccn1` (centres undefined) the fold change (FC) [1] was 4.78, the Activity [2] was “Dose-Dependent Effect” and the fold change (FC) [3] was 1.33. For the same compound, the Activity (INS-1E [4]) was “inactive”, the fold change (FC) [5] was 5.11 and the fold change (FC) [6] was 4.1. For the same compound, the fold change (FC) (L6 [7]) was 0.22, the Activity (INS-1E [8]) was “Active” and the fold change (FC) (L6 [9]) was 0.12. The fold change (FC) (L6 [10]) was 0.3, the clearance [11] was 31.2 mL/min/kg and the fold change (FC) [12] was 5.71. The fold change (FC) [13] was 6.32, the fold change (FC) [14] was 2.33 and the fold change (FC) (L6 [15]) was 1.1. The Activity (INS-1E [16]) was “inactive”, the “fold change (FC)” value (L6 [17]) was 1.2 and the fold change (FC) [18] was 9. The fold change (FC) (L6 [19]) was 0.25, the fold change (FC) [20] was 1.58 and the fold change (FC) [21] was 5.56. For the same compound, the Tmax [22] was 30 min, the Vd [23] was 1.23 L/kg and the half-life [24] was 49.6 min. For the same compound, the fold change (FC) [25] was 5, the “fold change (FC)” value (L6 [26]) was 1.1 and the half-life [27] was 66.6 min. For the same compound, the Cmax [28] was 7630 ng/mL, the Activity [29] was “Dose-Dependent Effect” and the bioavailability [30] was 99%. The fold change (FC) [31] was 0.5, the Activity (INS-1E [32]) was “Dose-Dependent Effect” and the Activity [33] was “Active”. The “fold change (FC)” value (L6 [34]) was 1.8, the fold change (FC) [35] was 5.25 and the fold change (FC) [36] was 5.33. It also gave a fold change (FC) (L6 [37]) of 0.18, a fold change (FC) (L6 [38]) of 0.18 and a half-life [39] of 66.6 min.
